Biological target: T1, PGD2 receptor 2 (DP2) (Homo sapiens, UniProt Q9Y5Y4)
T1 construct: gene PTGDR2
T1 sequence (Q9Y5Y4 1-395): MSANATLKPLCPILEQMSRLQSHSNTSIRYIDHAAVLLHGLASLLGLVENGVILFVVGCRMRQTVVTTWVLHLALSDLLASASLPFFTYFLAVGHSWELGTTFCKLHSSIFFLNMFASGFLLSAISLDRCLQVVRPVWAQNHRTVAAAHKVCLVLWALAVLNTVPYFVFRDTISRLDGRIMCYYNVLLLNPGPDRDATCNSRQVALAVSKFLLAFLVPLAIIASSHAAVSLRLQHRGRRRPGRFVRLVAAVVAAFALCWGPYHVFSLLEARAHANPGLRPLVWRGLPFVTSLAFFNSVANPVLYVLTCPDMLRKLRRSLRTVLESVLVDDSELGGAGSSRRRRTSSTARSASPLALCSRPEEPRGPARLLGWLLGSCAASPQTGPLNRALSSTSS

Cc1c(CC(=O)O)c2cccnc2n1Cc1ccc(S(C)(=O)=O)cc1C(F)(F)F [fevipiprant]
IC50: 3.5 ± 3.6 nM
